Consider five compounds from publication PMC5454378, “Histone deacetylase 10 structure and molecular function as a polyamine deacetylase” (Nature Communications, 2017).

Format in all cases: biochemical
The target of experiment [1] is T1, zHDAC10 (Danio rerio, UniProt F1QCV2).
T1 construct: gene hdac10; full-length, residues 2–675
T1 sequence (F1QCV2 2-675): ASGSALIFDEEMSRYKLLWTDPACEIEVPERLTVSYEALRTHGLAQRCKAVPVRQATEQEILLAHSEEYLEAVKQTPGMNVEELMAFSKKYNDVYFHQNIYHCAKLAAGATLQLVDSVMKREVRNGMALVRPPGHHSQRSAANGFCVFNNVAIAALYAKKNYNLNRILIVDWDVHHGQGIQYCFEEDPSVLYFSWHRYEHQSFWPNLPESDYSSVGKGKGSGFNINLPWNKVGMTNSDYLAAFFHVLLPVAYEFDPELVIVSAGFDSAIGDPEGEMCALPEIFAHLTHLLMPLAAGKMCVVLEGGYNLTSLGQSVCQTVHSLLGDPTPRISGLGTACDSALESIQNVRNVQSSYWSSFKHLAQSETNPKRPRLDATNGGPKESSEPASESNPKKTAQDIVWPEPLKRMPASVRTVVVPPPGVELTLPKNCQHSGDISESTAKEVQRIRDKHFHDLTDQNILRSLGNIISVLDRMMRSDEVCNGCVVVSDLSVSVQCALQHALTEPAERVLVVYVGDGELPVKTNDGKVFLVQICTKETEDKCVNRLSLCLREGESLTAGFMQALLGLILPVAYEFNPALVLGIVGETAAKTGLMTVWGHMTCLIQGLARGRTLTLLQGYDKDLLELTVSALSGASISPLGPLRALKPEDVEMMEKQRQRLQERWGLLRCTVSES
Nature of the experiment: LC–MS deacetylase inhibition assay with N8-acetylspermidine; Ki by Cheng-Prusoff.

Experiment [2] has as its target T1, zHDAC10. As to the kind of experiment: LC–MS steady-state kinetics.
For experiment [3], the target named is T2, hHDAC10 (Homo sapiens, UniProt Q969S8).
T2 construct: gene HDAC10; full-length, residues 2–669, MBP fusion
T2 sequence (Q969S8 2-669): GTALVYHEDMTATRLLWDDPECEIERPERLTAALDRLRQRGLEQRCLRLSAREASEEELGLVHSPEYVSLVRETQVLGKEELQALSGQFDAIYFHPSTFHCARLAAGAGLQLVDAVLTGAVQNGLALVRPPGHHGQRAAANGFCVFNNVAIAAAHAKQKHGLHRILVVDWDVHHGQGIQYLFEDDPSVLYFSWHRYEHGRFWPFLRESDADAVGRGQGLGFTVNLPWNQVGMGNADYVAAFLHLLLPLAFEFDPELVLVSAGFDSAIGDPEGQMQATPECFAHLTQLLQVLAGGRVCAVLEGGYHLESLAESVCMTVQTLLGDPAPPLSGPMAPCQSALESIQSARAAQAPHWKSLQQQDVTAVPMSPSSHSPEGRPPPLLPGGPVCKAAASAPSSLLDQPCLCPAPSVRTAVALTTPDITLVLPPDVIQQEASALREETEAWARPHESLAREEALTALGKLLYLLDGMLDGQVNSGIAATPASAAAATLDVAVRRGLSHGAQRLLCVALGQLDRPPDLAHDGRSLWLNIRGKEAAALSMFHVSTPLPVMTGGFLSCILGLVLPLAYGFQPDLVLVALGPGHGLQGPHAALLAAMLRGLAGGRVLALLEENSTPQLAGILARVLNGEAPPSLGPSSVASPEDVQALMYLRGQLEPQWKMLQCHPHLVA
Nature of the experiment: LC–MS steady-state kinetics.

The target in experiment [4] is T1, zHDAC10. As to the kind of experiment: LC–MS steady-state kinetics (kcat/KM).
In experiment [5] the target is T2, hHDAC10. Nature of the experiment: LC–MS steady-state kinetics (kcat/KM).

Molecules are shown by their SMILES.

A word on the Ki: it is a dissociation constant, usually derived from enzyme kinetics or from competition with a known ligand. Compound `NCCCNCCCCCC(=O)C(F)(F)F` [AAT, 7-[(3-aminopropyl)amino]-1,1,1-trifluoroheptan-2-one] had a Ki at zHDAC10 [1] of 0.7 ± 0.2 µM. For `CC(=O)NCCCCCN` [AcCAD, acetylcadaverine], the LC-MS steady-state kinetics result on zHDAC10 [2] is “substantial catalytic activity was also observed with acetylcadaverine and acetylputrescine”; on hHDAC10 [3], “substantial catalytic activity was also observed with acetylcadaverine and acetylputrescine”.

For `CC(=O)NCCCCCCCCN` [AcDAO, N-(8-aminooctyl)acetamide], the LC-MS steady-state kinetics entry at zHDAC10 [2] is “also observed with acetylcadaverine and acetylputrescine, as well as N-(8-aminooctyl)acetamide”.

For the compound `CC(=O)NCCCCN` [AcPUT, acetylputrescine], the LC-MS steady-state kinetics result at zHDAC10 [2] is “substantial catalytic activity was also observed with acetylcadaverine and acetylputrescine”; on hHDAC10 [3], “substantial catalytic activity was also observed with acetylcadaverine and acetylputrescine”. With `CC(=O)NCCCCNCCCN` [N^8-AcSPD, N^8-acetylspermidine], the “LC-MS steady-state kinetics (kcat/KM)” value is recorded as 4,600±300 M^−1 s^−1 on zHDAC10 [4] and 2,900±200 M^−1 s^−1 at hHDAC10 [5].
